Measured values published in US6846840B2, “Cytotoxic N-unsubstituted indoles and cyclopent(B)indoles and method of making and using same” (Arizona Board of Regents acting for and on behalf of …, priority 1999, dated 2005).
Like-named read-outs stand apart in the source and are kept apart here.

Columns and labels:
[1] = tested on: CNS cancer cell lines; details: log of concentration causing 50% lethality; arithmetic average of six to eight CNS cell lines
[2] = tested on: COLON cancer cell lines; details: log of concentration causing 50% lethality; arithmetic average of six to eight colon cell lines
[3] = tested on: NSC LUNG cancer cell lines; details: log of concentration causing 50% lethality; arithmetic average of six to eight NSC lung cell lines
[4] = tested on: BREAST cancer cell lines; details: log of concentration causing 50% lethality; arithmetic average of six to eight breast cell lines
Protocol: (§1) For each histologic cancer type, the average −log LC50 value was determined from an NCI panel consisting of six to eight human cancer cell lines. {Paull, D. K.; Shoemaker, R. H.; Hodes, L.; Monks, A.; Scudiero, D. A.; Rubinstein, L.; Plowman, J.; Boyd, M. R. Display and Analysis of Differential Activity of Drugs Against Human Tumor Cell Lines: Development of Mean Graph and COMPARE Algorithm.

[5] = tested on: LEUKEMIA cancer cell lines; details: log of concentration causing 50% lethality; arithmetic average of six to eight leukemia cell lines
[6] = tested on: MELANOMA cancer cell lines; details: log of concentration causing 50% lethality; arithmetic average of six to eight melanoma cell lines
[7] = tested on: OVARIAN cancer cell lines; details: log of concentration causing 50% lethality; arithmetic average of six to eight ovarian cell lines
Protocol: as §1

[8] = tested on: RENAL cancer cell lines; details: log of concentration causing 50% lethality; arithmetic average of six to eight renal cell lines
Protocol: as §1

[9] = tested on: PROSTATE cancer cell lines; details: log of concentration causing 50% lethality; arithmetic average of six to eight prostate cell lines
Protocol: as §1

[10] = biological target: T1, rat liver DT-diaphorase (Rattus norvegicus, UniProt P05982); details: FIG. 2
T1 sequence (P05982 2-274 limits assumed): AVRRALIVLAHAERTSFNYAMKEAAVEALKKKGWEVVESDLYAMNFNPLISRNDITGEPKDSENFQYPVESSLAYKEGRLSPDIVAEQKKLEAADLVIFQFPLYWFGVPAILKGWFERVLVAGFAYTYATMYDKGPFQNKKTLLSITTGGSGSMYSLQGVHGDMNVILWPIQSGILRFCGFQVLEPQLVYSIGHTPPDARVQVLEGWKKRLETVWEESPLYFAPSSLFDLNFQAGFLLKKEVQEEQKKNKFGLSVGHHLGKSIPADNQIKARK

[11] = tested on: B-16 melanoma; details: for in vivo activity (effect on tumor mass), in words: B16 syngraft, dosing on days 1, 5, and 9 after implantation of 10^5 cells; for area under the tumor-growth curve (AUC): control 11.39
Protocol: This compound was studied at three dose levels: 2, 3 and 5 mg/Kg IP on days 1, 5, and 9 after tumor implantation into the front flank muscle. Shown in the plot are the AUC values as a function of time for each dosage. The control was obtained with drug-free animals.

[12] = tested on: 600 bp calf thymus DNA; test: Alkylation of DNA by reduced indoloquinones; details: FIG. 2
[13] = 1 mg/Kg IP on days 1, 5, and 9 after tumor implantation
[14] = 3 mg/Kg IP on days 1, 5, and 9 after tumor implantation

| SMILES | Log LC50 [1] | Log LC50 [2] | Log LC50 [3] | Log LC50 [4] | Log LC50 [5] | Log LC50 [6] | Log LC50 [7] | Log LC50 [8] | Log LC50 [9] | DT-diaphorase substrate activity, in words [10] | in vivo activity (effect on tumor mass), in words [11] | % reductive alkylation of DNA, in words [12] | area under the tumor-growth curve (AUC) [11, 13] | area under the tumor-growth curve (AUC) [11, 14] |
| --- | --- | --- | --- | --- | --- | --- | --- | --- | --- | --- | --- | --- | --- | --- |
| CC1=C(N2CC2)C(=O)c2c([nH]c(C)c2C)C1=O [Indole 1a, 5-Aziridinyl-2,3,6-trimethylindole-4,7-dione] | >−4 moles/liter | >−4 moles/liter | −4.29 moles/liter | >−4 moles/liter | >−4 moles/liter | −4.42 moles/liter | >−4 moles/liter | >−4 moles/liter | >−4 moles/liter |  |  |  |  |  |
| CC(=O)OC1CCc2c3c(n(C(C)=O)c21)C(=O)C(N1CC1)=C(C)C3=O (centres unmarked) [Cyclopent[b]indole 14, 3-Acetoxy-4-acetyl-6-aziridinyl-1,4-Dihydro-7-methyl-(2H) cyclopent[b]indole-5,8-dione] | −4.75 moles/liter | −4.77 moles/liter | −4.42 moles/liter | −4.5 moles/liter | >−4 moles/liter | −5.06 moles/liter | −4.18 moles/liter | −4.78 moles/liter | −4.71 moles/liter | excellent substrate for DT-diaphorase | enhances antitumor activity greatly | readily alkylates DNA |  |  |
| COC1CCc2c1[nH]c1c2C(=O)C(C)=C(N2CC2)C1=O (centres unmarked) [Cyclopent[b]indole 3d, 6-Aziridinyl-1,4-dihydro-3-methoxy-7-methyl-(2H) cyclopent[b]indole-5,8-dione] | −4.17 moles/liter | −4.318 moles/liter | −4.2 moles/liter | −4.33 moles/liter | −4.06 moles/liter | −4.92 moles/liter | >−4 moles/liter | −4.58 moles/liter | −4.46 moles/liter |  |  |  |  |  |
| CC1=C(N2CC2)C(=O)c2[nH]c3c(c2C1=O)CCC3O (centres unmarked) [Cyclopent[b]indole 3b, 6-Aziridinyl-1,4-Dihydro-3-hydroxy-7-methyl-(2H) cyclopent[b]indole-5,8-dione] | −4.54 moles/liter | −4.45 moles/liter | −4.22 moles/liter | −4.47 moles/liter | −4.06 moles/liter | −4.85 moles/liter | −4.05 moles/liter | −4.73 moles/liter | −4.5 moles/liter |  |  |  |  |  |
| CC(=O)OC1CCc2c1[nH]c1c2C(=O)C(C)=C(N2CC2)C1=O (centres unmarked) [Cyclopent[b]indole 3c, 3-Acetoxy-6-aziridinyl-1,4-dihydro-7-methyl-(2H) cyclopent [b]indole-5,8-dione] | −4.7 moles/liter | −4.85 moles/liter | −4.65 moles/liter | −4.53 moles/liter | −4.3 moles/liter | −4.99 moles/liter | −4.366 moles/liter | −4.72 moles/liter | −4.63 moles/liter |  | reduce the tumor mass substantially | highest % alkylation of DNA | 6.67 | 6.92 |
| CC1=C(N2CC2)C(=O)c2[nH]c(CO)c(C)c2C1=O [Indole 2b, 6-Aziridinyl-2-(hydroxymethyl)-3,5-dimethylindole-4,7-dione] | −4.05 moles/liter | −4.2 moles/liter | −4.1 moles/liter | −4.05 moles/liter | >−4 moles/liter | −4.4 moles/liter | >−4 moles/liter | −4.23 moles/liter | −4.2 moles/liter |  |  |  |  |  |
| CC1=C(N2CC2)C(=O)c2c([nH]c(CO)c2C)C1=O [Indole 1b, 5-Aziridinyl-2-(hydroxymethyl)-3,6-dimethylindole-4,7-dione] | >−4 moles/liter | −4.32 moles/liter | −4.37 moles/liter | −4.56 moles/liter | >−4 moles/liter | −5.39 moles/liter | >−4 moles/liter | −4.53 moles/liter | −4.78 moles/liter |  |  |  |  |  |
| CC(=O)OCc1[nH]c2c(c1C)C(=O)C(C)=C(N1CC1)C2=O [Indole 2c, 2-(Acetoxymethyl)-6-aziridinyl-3,5-dimethylindole-4,7-dione] | >−4 moles/liter | >−4 moles/liter | −4.1 moles/liter | >−4 moles/liter | >−4 moles/liter | −4.15 moles/liter | >−4 moles/liter | −4.14 moles/liter | >−4 moles/liter |  | inactive at both concentrations |  | 13.83 | 8.59 |
| CC(=O)OCc1[nH]c2c(c1C)C(=O)C(N1CC1)=C(C)C2=O [Indole 1c, 2-(Acetoxymethyl)-5-aziridinyl-3,6-dimethylindole-4,7-dione] | −4.83 moles/liter | −5.08 moles/liter | −4.48 moles/liter | −4.57 moles/liter | >−4 moles/liter | −5.64 moles/liter | −4.46 moles/liter | −4.54 moles/liter | −5.01 moles/liter |  | decreased tumor mass only at the 3 mg/kg dose |  | 10.94 | 15.82 |
| CC1=C(N2CC2)C(=O)c2[nH]c3c(c2C1=O)CCC3=O [Cyclopent[b]indole 3e, 6-Aziridinyl-1,4-dihydro-7-methyl-(2H) cyclopent [b]indole-3,5,8-trione] | −5.13 moles/liter | −5.44 moles/liter | −5.37 moles/liter | −4.9 moles/liter | >−4 moles/liter | −5.99 moles/liter | −4.86 moles/liter | −5.34 moles/liter | −4.8 moles/liter |  | completely inactive |  |  |  |
